Here are results for ten compounds from publication PMC6120739 (ACS Omega, 2018).

“Also recorded” adds a separate entry of the source.

For one data set, the system named is UWB1.289 cells. Kind of data set: Cell viability assay. To be noted: for EC50: UWB1289, read-out: UWB1.289 EC50; for cytotoxicity in BRCA1-null model, result in words: compared with AZD2461 and olaparib.
The test system of the next data set is UWB1.289 + BRCA1 cells. Kind of data set: Cell viability assay. It is filed as cell-based. The conditions noted are these: for EC50: UWB1289, read-out: UWB1.289 + BRCA1 EC50; for antiproliferative effect in BRCA1-restored UWB1.289, result in words: in contrast to olaparib and AZD2461.
Another data set addresses recombinant human P-gp (Homo sapiens, UniProt P08183). Description: Pgp-Glo assay. The conditions noted are these: 20 µM compound, 1 hr at 37°C, normalized to Na3VO4.
The target of a further data set is PARP-1 (Homo sapiens, UniProt P09874). Description: PARP-1 radioligand binding. The conditions noted are these: PARP-1 IC50, OVCAR8 cells, [125I]KX1 radioligand, ± SEM, n = 3.
Chain of PARP-1 (P09874 whole entry): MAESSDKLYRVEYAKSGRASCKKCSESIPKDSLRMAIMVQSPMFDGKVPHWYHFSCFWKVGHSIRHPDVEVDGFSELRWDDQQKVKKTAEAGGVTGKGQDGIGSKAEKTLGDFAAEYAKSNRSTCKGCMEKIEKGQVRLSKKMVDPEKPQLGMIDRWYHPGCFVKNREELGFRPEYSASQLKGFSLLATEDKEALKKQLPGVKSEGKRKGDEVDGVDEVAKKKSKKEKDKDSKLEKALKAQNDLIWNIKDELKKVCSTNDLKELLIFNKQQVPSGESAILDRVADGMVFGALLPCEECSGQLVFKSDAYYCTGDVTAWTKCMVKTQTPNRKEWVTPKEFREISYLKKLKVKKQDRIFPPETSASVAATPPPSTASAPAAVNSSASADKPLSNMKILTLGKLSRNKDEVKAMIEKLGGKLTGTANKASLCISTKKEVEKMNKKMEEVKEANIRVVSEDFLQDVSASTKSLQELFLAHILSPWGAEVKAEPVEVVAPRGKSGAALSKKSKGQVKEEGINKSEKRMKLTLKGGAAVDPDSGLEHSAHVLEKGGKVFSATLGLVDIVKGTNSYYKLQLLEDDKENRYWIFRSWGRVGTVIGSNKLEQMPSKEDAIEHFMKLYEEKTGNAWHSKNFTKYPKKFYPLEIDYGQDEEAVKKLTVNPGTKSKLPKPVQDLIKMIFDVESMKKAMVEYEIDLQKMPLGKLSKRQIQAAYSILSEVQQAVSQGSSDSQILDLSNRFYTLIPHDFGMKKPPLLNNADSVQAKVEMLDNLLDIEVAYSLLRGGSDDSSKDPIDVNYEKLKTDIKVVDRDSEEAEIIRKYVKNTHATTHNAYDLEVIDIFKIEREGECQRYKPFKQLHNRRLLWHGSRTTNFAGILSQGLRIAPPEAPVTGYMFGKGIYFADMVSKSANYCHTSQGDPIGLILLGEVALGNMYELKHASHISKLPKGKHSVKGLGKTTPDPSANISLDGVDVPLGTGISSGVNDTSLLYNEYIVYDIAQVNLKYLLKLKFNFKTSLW

Chain of recombinant human P-gp (P08183 whole entry): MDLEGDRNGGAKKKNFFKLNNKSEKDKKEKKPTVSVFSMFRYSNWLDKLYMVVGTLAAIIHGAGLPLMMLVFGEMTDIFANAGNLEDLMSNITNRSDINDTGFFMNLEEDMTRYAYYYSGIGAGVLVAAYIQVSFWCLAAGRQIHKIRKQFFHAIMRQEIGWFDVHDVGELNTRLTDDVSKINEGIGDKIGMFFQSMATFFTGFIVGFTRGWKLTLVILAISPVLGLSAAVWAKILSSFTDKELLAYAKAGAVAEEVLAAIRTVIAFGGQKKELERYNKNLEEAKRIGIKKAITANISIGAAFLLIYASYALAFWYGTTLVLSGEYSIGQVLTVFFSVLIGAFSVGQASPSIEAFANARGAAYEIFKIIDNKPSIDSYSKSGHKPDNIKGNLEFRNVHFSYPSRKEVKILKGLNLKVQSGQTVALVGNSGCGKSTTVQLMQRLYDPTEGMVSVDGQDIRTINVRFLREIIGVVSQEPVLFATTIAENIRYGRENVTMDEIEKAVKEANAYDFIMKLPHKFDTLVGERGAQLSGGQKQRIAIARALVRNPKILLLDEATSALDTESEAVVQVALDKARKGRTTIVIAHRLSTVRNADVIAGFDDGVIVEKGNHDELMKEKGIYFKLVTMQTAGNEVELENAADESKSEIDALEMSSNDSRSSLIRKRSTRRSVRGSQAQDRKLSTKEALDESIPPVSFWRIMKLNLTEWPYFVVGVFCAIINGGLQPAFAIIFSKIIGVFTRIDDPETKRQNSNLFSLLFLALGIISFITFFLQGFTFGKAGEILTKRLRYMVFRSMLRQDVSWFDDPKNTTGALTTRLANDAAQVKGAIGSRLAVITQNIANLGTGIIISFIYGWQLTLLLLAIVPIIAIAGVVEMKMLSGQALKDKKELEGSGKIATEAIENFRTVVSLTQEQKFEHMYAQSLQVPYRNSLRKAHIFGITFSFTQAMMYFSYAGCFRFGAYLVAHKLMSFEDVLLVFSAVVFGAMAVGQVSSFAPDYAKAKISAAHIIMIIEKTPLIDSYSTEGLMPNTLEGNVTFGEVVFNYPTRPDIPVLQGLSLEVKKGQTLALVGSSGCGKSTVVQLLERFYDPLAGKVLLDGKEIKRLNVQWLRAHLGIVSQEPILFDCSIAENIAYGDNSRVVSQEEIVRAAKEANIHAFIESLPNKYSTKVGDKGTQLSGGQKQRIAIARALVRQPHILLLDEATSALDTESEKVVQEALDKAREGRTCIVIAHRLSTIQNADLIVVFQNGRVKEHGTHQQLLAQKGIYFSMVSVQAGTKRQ

For the compound `COC1CCN(C(=O)c2cc(Cc3n[nH]c(=O)c4ccccc34)ccc2F)C1` (stereo not drawn) [Compound 3], in the data set with UWB1.289 cells, the half-maximal effective concentration (EC50) stood at 1500 ± 400 nM; the “cytotoxicity in BRCA1-null model, result in words” value (“cytotoxicity in BRCA1-null model” below) was “less cytotoxic than both AZD2461 and olaparib”. Besides, in the data set on UWB1.289 + BRCA1 cells, the half-maximal effective concentration (EC50) was 8.58 ± 1.1 µM and the “antiproliferative effect in BRCA1-restored UWB1.289, result in words” value (from here on “antiproliferative effect”) is “poor antiproliferative effects”. Also, at recombinant human P-gp, the “P-gp ATPase interaction (luminescence), result in words” value (“P-gp ATPase interaction (luminescence)” for short) is “increase in luminescence; also recorded: weakest activators of P-gp ATPase; also recorded: least activating agents of P-gp ATPase”. This compound came in with an IC50 on PARP-1 of under 10 nM.
In the case of `COC1CCCN(C(=O)c2cc(Cc3n[nH]c(=O)c4ccccc34)ccc2F)CC1` (stereo not drawn) [Compound 5], in the data set with UWB1.289 cells, the EC50 worked out at 2840 ± 1400 nM; the “cytotoxicity in BRCA1-null model” value is “less cytotoxic than both AZD2461 and olaparib”. Moreover, in the data set on UWB1.289 + BRCA1 cells, the concentration for a half-maximal effect (EC50) is 3.49 ± 0.2 µM and the “antiproliferative effect” value was “poor antiproliferative effects”. For the same compound, at recombinant human P-gp, the “P-gp ATPase interaction (luminescence)” value is listed as “increase in luminescence; also recorded: weakest activators of P-gp ATPase”. For the same compound, at PARP-1, the concentration for half-maximal inhibition (IC50) is under 10 nM.
With `COC1CN(C(=O)c2cc(Cc3n[nH]c(=O)c4ccccc34)ccc2F)C1` [Compound 2], in the data set on UWB1.289 cells, the EC50 came to 2120 ± 200 nM; the “cytotoxicity in BRCA1-null model” value is “less cytotoxic than both AZD2461 and olaparib”. Further, in the data set on UWB1.289 + BRCA1 cells, the half-maximal effective concentration (EC50) is 13.4 ± 0.7 µM and the “antiproliferative effect” value is recorded as “poor antiproliferative effects”. Moreover, at recombinant human P-gp, the “P-gp ATPase interaction (luminescence)” value was “increase in luminescence”. This compound also returned an IC50 at PARP-1 of under 10 nM.
As for `O=C(c1cc(Cc2n[nH]c(=O)c3ccccc23)ccc1F)N1CCN(C(=O)C2CC2)CC1` [olaparib, reference compound], the concentration for a half-maximal effect (EC50) in the data set on UWB1.289 cells was 900 ± 500 nM; in the data set on UWB1.289 + BRCA1 cells, 1.97 ± 0.4 µM. For the same compound, on recombinant human P-gp, the “P-gp ATPase interaction (luminescence)” value is given as “acts more of a P-gp ATPase activator, than 4”.
As for `CO[C@H]1C[C@@H](NC(=O)c2cc(Cc3n[nH]c(=O)c4ccccc34)ccc2F)C1` [Compound 8], the results for the concentration for a half-maximal effect (EC50) in the data set with UWB1.289 cells and with UWB1.289 + BRCA1 cells were 4350 ± 1700 nM and 13.9 ± 1.1 µM, respectively. At PARP-1, this compound registered an IC50 of 107 ± 1.1 nM.
For `COC1CCC(NC(=O)c2cc(Cc3n[nH]c(=O)c4ccccc34)ccc2F)CC1` (stereo not drawn) [Compound 10], in that order: 2420 ± 900 nM, 6.16 ± 1.3 µM and 226.3 ± 1.1 nM.
`COC1CCC(NC(=O)c2cc(Cc3n[nH]c(=O)c4ccccc34)ccc2F)C1` (stereo not drawn) [Compound 9]: the EC50 came out at 1320 ± 500 nM with UWB1.289 cells and 9.31 ± 1 µM in the data set on UWB1.289 + BRCA1 cells. Also, the “P-gp ATPase interaction (luminescence)” value at recombinant human P-gp is listed as “poor activator of P-pg ATPase; also recorded: least activating agents of P-gp ATPase”. The IC50 at PARP-1 was determined as 49.5 ± 1.1 nM.
Take `COC1CC(NC(=O)c2cc(Cc3n[nH]c(=O)c4ccccc34)ccc2F)C1` (stereo not drawn) [Compound 6]: the EC50 worked out at 10100 ± 1500 nM in the data set on UWB1.289 cells and 6.62 ± 4.3 µM with UWB1.289 + BRCA1 cells. At recombinant human P-gp, the “P-gp ATPase interaction (luminescence)” value is reported as “only P-gp substrate in this study”.
On to `CO[C@H]1C[C@H](NC(=O)c2cc(Cc3n[nH]c(=O)c4ccccc34)ccc2F)C1` [Compound 7], for which the EC50 was 1940 ± 1100 nM in the data set with UWB1.289 cells and 2.81 ± 1.4 µM with UWB1.289 + BRCA1 cells. On PARP-1, the IC50 stood at 20.8 ± 1.1 nM.
For the compound `COC1CCN(C(=O)c2cc(Cc3n[nH]c(=O)c4ccccc34)ccc2F)CC1` [Compound 4, AZD2461, reference compound], the EC50 turned out to be 890 ± 700 nM in the data set on UWB1.289 cells and 2.28 ± 0.3 µM in the data set on UWB1.289 + BRCA1 cells.

As a reminder, the EC50 is the concentration that produces a half-maximal response. One may read the IC50 as the point on the concentration scale where inhibition reaches its midpoint. Low values mean greater potency, high ones weaker potency.
